These results are taken from patent US10705094B2, “TNF receptor signaling modulator assay” (UCB Biopharma SRL, priority 2015, dated 2020).

In test [1] the target is T1, TNFα (Homo sapiens, UniProt P01375). Put plainly: L929 murine fibrosarcoma cell-killing (neutralisation) assay. It counts as cell-based, mouse. Set-up: host or cells: added to L929 murine fibrosarcoma cells (ECACC, 85011425). Particulars: L929 cells; read-out: IC50 (inhibition of cell killing activity of human TNFα). The method, then:
The L929 neutralisation assays were carried out using the protocol disclosed in Baarsch M J J et al (Immunol Methods 1991; 140: 15-22) and Galloway C J et al J (Immunol Methods 1991; 140: 37-43).
Briefly, L929 cells (ECACC, 85011425) were cultured in culture medium consisting of RPMI 1640 (Gibco) containing 10% FCS (PAA), 2 mM glutamine (Gibco), 50 U/ml penicillin (Gibco) and 50 μg/ml streptomycin (Gibco). When they were subcultured, the cells were washed three times with 10 mL Dulbecco's phosphate-buffered saline without calcium and magnesium (Gibco) and 3 ml of trypsin-EDTA (Gibco) was then added for 2 minutes to remove the cells from the flask. Culture medium was added to neutralise the trypsin and the cells pipetted up and down to remove any clumps.
The L929 cells were split 1/2 or 1/3 the day before use and cultured for a further 24 hours. The flasks were then trypsinised as above and 2×10^4 cells in 100 μl were added per well of a 96 well flat-bottomed plate (Becton Dickinson). The plates were cultured for 24 hours before the assay was set up.
Serial dilutions were made from DMSO stocks of the compounds.
The assay medium was the same as culture medium but also contained 1 μg/ml actinomycin D (Sigma). The medium was flicked off the plates and the assay samples plus TNFα, standards and controls were added in 100 μl volumes in duplicate. Plates were incubated for a further 16 hours and then 10 μl per well of a 5 mg/ml methylthiazoletetrazolium (MTT; Sigma) solution in culture medium was added for a further 4 hours. The reaction was stopped by the addition of 100 μl of solubilisation buffer containing 20% sodium dodecyl sulphate (SDS, BDH) dissolved in 50% dimethyl formamide (DMF; BDH) and 50% deionised water.
After overnight incubation at 37° C. to allow the dye to dissolve, the plates were read on a Multiskan EX plate reader (Labsystem) at 570 nm with subtraction at 630 nm. Data were analysed using the Genesis software package.

In test [2] the target is T1, TNFα. Put plainly: Surface plasmon resonance kinetics of compound binding to immobilised TNFα (Biacore T100/T200). The procedure:
Surface plasmon resonance was used to measure the association rate, the dissociation rate and the affinity of the compounds of formulae (1) and (2) for TNFα (FIGS. 13A and B). For the purpose of this study a Biacore T100/T200 was used.
TNFα was immobilised at pH5 to a level of 5-8 KRU onto a CMS sensor in HBS-P buffer (10 mM HEPES pH 7.4, 0.15 M NaCl, 0.005% Surfactant P20, BIAcore, GE Healthcare). The TNFα was then equilibrated in HBS-P with 5% DMSO for at least 5 hours. The samples were diluted from 10 mM stocks into DMSO matched buffer and left to solubilise for at least 5 hours. The flow rate was 30 μL/min.
This assay was performed by adding 4 or 5 concentrations of compound starting from a highest concentration of 25 μM for compound of formula (1) and 1 μM for compound of formula (2) and then serially diluting this sample. Background subtraction binding curves were analysed using the BIAevaluation software following standard procedures. Binding, affinity and kinetic parameters were determined using Biacore software. The kinetic data were fitted using the levenberg marquardt algorithm.
Background: Surface plasmon resonance follows binding to a sensor surface in real time, without labels.

Test [3] deals with T1, TNFα. As to the kind of experiment: Fluorescence polarization assay, competition with the compound of formula (4) for TNFα. Particulars: TNFα 50 nM, compound of formula (4) 10 nM, 5% DMSO; read-out: IC50 (inhibition of binding of the compound of formula (4) to TNFα). The procedure:
The final concentrations of TNFα and the compound of formula (4) were 50 nM and 10 nM respectively in a total assay volume of 25 μl. Plates were read on an Analyst HT reader. An IC50 was calculated using xlfit (4 parameter logistic model) in Activity Base.
C87 was preincubated with TNFα for 1 hour prior to assay against the fluorescent compound (probe). Competition with the fluorescent compound either directly (binding at the same site) or indirectly (disrupting TNF) is detected by a reduction in FP.
On the technique in general: In fluorescence polarisation assays a small probe gives low polarisation when free and higher when bound to something large.

The target of test [4] is T2, TNFα binding to the TNF receptor (TNFR-ECD) (Homo sapiens, UniProt P01375).
T2 construct: purchased R&D Systems
T2 sequence (P01375 77-233 limits assumed): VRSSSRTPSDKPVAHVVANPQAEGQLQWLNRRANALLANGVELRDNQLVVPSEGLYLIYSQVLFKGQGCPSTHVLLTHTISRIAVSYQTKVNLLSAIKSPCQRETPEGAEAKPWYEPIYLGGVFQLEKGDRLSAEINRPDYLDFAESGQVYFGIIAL
As to the kind of experiment: Meso Scale Discovery (MSD) assay of TNFα binding to plate-coated TNFR-ECD. Particulars: single point assay, 100 μM compound, 5% final v/v DMSO. The procedure: 384 well uncoated plates (standard binding) Meso Scale Discovery plates (MSD) were coated overnight with the extracellular domain of TNFR (TNFR-ECD) (10 μl, 1 ug/mL in PBS). To ensure even distribution plates were centrifuged at 1000 rpm for 2 minutes. The plates were then sealed and stored at +4° C. overnight.
The wells of the plates were then washed three times in 50 μl phosphate buffered saline pH 6.5 (PB) with 0.05% Tween 20 (wash buffer), and then blocked with 50 μl 2% BSA. The plates were then incubated at room temperature on a shaker (600 rpm) for 2 hours. After this incubation plates were washed (3×50 μl wash buffer per well).
During the blocking incubation, compounds of formulae (1) and (2) were pre-incubated with TNF (R&D Systems) prior to addition to the pre-blocked and washed MSD plates. For a single point assay as shown in FIG. 3A the compounds were assayed at a final concentration of 100 μM (5% final v/v DMSO).
Pre-diluted compounds of formulae (1) and (2) were added at a ratio of 1:1 to 4 ng/mL TNF (final concentration 2 ng/ml), and then incubated at room temperature on a shaker 600 rpm for 1 hour.
10 μl of pre-incubated mixtures of compound of formulae (1) or (2) with TNFα were added to the prepared MSD plate and incubated at room temperature on a shaker for 1 hour.
The plates were then washed with wash buffer (3×50 μl per well). Sulfo-tagged anti-TNF polyclonal antibody was then added to each well and the plates incubated for a further 1.5 hours at room temperature on a shaker.
The plates were then washed (3×50 μl wash buffer per well), followed by the addition of 50 μl MSD Read buffer T plus surfactant (diluted 1 in 2 in H2O) and read on a SECTOR Imager 6000.
For single point assays percentage inhibition was calculated using a control sample without compound.
For EC50s determination results were calculated by standard means using a 4 parameter logistic model (sigmoidal dose response model).

T1 sequence (P01375 77-233 limits assumed): as above

As to `O=C1CCCN1c1cccc(OCc2nc3ccc(-c4ccc(=O)[nH]c4)cc3n2Cc2ccccc2OC(F)F)c1` [Compound (3), 5-(1-[2-(Difluoromethoxy)benzyl]-2-{[3-(2-oxo-pyrrolidin-1-yl)phenoxy]methyl}-1H-benzimidazol-6-yl)-pyridin-2(1H)-one], the results for the IC50 in test [1] and in test [3] were 0.021 µM and 0.02 µM, respectively. Further, the Kd in test [2] (calculated from koff/kon, read-out: dissociation constant (KD)) was 0.007 µM. The compound also gave a kon in test [2] (immobilised TNFα, HBS-P with 5% DMSO) of 5470 M⁻¹ s⁻¹. In test [2] (immobilised TNFα, HBS-P with 5% DMSO, read-out: dissociation rate constant (koff)), the off-rate (koff) amounted to 4.07e-05 s⁻¹.
For `Cc1cc2occ(CN(C)CCN(C)Cc3cn(-c4cccc(C(F)(F)F)c4)c4ccccc34)c(=O)c2cc1C` [SPD-304, reference compound], the “% inhibition of TNFα binding to the TNF receptor” value in test [4] is “+80%”.

The term IC50 denotes the concentration that gives 50% inhibition. A word on the Kd: it is the equilibrium constant for the complex coming apart. For orientation: kon means the second-order rate constant of association. Lower therefore signals slow association. Broadly, the koff is the rate constant with which the complex falls apart.
